Read-outs that look alike come from different tables or passages of the source.
Key:
[1] = target: T1, HarmOR27 (Helicoverpa armigera, UniProt A0A7T3KAG1); test: Xenopus oocyte two-electrode voltage clamp, HarmOR27 + Orco; format: cell-based; settings: HarmOR27; dose response in oocytes; unit M; read-out: EC50
T1 sequence (A0A7T3KAG1 1-426): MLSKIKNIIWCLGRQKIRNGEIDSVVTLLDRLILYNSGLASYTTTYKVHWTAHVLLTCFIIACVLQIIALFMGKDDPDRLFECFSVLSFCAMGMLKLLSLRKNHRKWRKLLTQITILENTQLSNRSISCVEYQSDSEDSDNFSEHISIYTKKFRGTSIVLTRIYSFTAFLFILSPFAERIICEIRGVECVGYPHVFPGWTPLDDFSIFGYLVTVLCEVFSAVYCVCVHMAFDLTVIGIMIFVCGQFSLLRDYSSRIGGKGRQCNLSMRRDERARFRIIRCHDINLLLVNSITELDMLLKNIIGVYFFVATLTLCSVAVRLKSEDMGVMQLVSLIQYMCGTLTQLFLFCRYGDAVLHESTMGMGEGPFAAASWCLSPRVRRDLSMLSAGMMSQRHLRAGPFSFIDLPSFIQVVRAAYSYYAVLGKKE
Experimental: (§1) In order to expand our analysis on the response properties of HarmORs, we conducted dose–response analyses for the 28 functional HarmORs. […] Six HarmORs (OR3, 22, 48, 50, 56, and 66) could not be activated by any ligand at 10^−5 M. For the other 22 HarmORs, dose–response curves were generated and EC50 values of their major ligands were calculated (fig. 2A and supplementary table S2, Supplementary Material online). The HarmOR repertoire was highly efficient in terpene detection, since the lowest EC50 values were obtained for such compounds. Many of these terpenes have been proposed to be defensive chemicals of plants. […] DMNT is also one of the oviposition deterring compounds found in larval frass of some Lepidoptera species such as S. littoralis ([Anderson et al. 1993]).
(§2) Functional characterization of individual ORs was performed by heterologous expression in Xenopus oocytes combined with a two-electrode voltage-clamp system ([Wang et al. 2010]). Briefly, the full-length gene of each OR and Orco were subcloned into the eukaryotic expression vector pT7TS. cRNAs were generated from linearized expression vectors using the mMESSAGE mMACHINE T7 kit (Ambion, Austin, TX). Then, the cRNA mixture of ORx and Orco (27.6 ng each) was injected (Nanoliter 2010, WPI Inc., Sarasota, FL) into oocytes (stage V–VII). The respective Orcos of different species were used for functional studies of OR42 orthologs except for the four butterfly species (V. tameamea, P. xuthus, D. plexippus, and P. rapae), in which we used the Orco from P. xuthus. After incubation in nutrient solution at 18 °C for 3–5 days, the response profile of each oocyte to multiple plant odorants was recorded via a two-electrode voltage clamp (OC-725C oocyte clamp, Warner Instruments, Hamden, CT) at a holding potential of −80 mV. Data were acquired by using a Digidata 1440 A and were analyzed by pCLAMP 10.2 software (Axon Instruments Inc., Union City, CA).
(§3) Stock solutions of each odorant were prepared at 1 M using DMSO as a solvent, and each odorant was diluted in 1× Ringer’s solution to the indicated concentrations for electrophysiological recording. For functional screening of each HarmOR, a panel of 67 odorants belonging to three types of chemical classes: terpenes, aromatics, and aliphatics (short-chain fatty acid) were used (supplementary table S1, Supplementary Material online). For functional studies of OR42 orthologs from different species, six odorants including PAA, benzaldehyde, (E)-2-hexen-1-al, cinnamaldehyde, 2-phenylethanol, and heptanal were used.

[2] = target: HarmOR52 (Helicoverpa armigera, UniProt A0A7T3KAH2); test: Xenopus oocyte two-electrode voltage clamp, HarmOR52 + Orco; format: cell-based
HarmOR52, sequence (A0A7T3KAH2 entry or part of it): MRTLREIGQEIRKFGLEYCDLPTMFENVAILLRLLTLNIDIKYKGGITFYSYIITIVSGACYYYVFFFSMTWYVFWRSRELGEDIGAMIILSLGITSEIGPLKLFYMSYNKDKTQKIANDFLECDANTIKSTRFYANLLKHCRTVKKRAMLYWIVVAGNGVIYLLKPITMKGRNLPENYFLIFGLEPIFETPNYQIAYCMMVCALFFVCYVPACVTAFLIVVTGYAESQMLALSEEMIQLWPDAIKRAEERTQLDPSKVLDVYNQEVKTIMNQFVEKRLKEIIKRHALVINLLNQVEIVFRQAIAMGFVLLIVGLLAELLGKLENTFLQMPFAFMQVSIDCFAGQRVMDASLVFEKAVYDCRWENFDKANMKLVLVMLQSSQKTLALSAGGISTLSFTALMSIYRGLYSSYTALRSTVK
Experimental: as §1, §2, §3

[3] = target: HarmOR36 (Helicoverpa armigera, UniProt A0A7T3N0K7); test: Xenopus oocyte two-electrode voltage clamp, HarmOR36 + Orco; format: cell-based; settings: dose response in oocytes, unit M
HarmOR36, sequence (A0A7T3N0K7 entry or part of it): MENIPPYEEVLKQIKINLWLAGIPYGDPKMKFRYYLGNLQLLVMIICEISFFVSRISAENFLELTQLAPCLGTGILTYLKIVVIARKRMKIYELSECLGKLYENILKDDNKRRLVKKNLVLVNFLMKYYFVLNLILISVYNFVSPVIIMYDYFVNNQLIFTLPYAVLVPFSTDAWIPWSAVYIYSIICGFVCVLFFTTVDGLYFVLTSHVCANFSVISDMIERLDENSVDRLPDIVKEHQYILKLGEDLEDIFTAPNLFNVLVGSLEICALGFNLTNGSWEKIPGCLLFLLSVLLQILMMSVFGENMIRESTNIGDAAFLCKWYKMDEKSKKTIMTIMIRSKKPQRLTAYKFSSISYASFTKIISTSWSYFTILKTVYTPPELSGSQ
Experimental: as §1, §2, §3

[4] = target: HarmOR12 (Helicoverpa armigera, UniProt A0A172QGF5); test: Xenopus oocyte two-electrode voltage clamp, HarmOR12 + Orco; format: cell-based
HarmOR12, sequence (A0A172QGF5 entry or part of it): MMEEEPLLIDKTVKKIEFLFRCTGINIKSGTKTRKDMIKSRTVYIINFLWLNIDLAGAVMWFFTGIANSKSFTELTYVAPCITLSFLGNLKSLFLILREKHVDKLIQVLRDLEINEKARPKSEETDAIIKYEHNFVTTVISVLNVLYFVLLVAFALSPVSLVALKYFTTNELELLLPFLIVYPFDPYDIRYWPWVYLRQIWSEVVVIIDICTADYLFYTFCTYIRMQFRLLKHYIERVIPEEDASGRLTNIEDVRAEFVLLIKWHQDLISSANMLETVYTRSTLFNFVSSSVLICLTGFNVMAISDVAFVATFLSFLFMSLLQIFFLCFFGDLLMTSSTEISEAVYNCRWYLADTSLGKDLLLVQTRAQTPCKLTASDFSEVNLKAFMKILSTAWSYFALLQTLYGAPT
From the text: (§4) In order to expand our analysis on the response properties of HarmORs, we conducted dose–response analyses for the 28 functional HarmORs. […] Many of these terpenes have been proposed to be defensive chemicals of plants.
(§5) Briefly, the full-length gene of each OR and Orco were subcloned into the eukaryotic expression vector pT7TS. cRNAs were generated from linearized expression vectors using the mMESSAGE mMACHINE T7 kit (Ambion, Austin, TX). […] The respective Orcos of different species were used for functional studies of OR42 orthologs except for the four butterfly species (V. tameamea, P. xuthus, D. plexippus, and P. rapae), in which we used the Orco from P. xuthus.
as §3

[5] = target: HarmOR31 (Helicoverpa armigera, UniProt A0A7T3N2E9); test: Xenopus oocyte two-electrode voltage clamp, HarmOR31 + Orco; format: cell-based; settings: HarmOR31; dose response in oocytes; unit M; read-out: EC50
HarmOR31, sequence (A0A7T3N2E9 entry or part of it): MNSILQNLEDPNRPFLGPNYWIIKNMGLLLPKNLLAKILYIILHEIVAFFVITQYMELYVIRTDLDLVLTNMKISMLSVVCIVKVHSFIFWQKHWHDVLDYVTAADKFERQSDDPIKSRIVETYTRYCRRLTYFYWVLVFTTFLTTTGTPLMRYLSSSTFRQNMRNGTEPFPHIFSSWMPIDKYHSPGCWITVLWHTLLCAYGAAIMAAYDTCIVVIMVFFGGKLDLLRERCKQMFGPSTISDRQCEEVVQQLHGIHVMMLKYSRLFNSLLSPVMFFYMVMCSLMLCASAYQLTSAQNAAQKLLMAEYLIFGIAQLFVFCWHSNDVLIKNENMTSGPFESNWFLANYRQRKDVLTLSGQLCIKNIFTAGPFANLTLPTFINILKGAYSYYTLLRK
From the text: as §4, §5, §3

[6] = target: T2, HarmOR40 (Helicoverpa armigera, UniProt A0A7T3KBF4); test: Xenopus oocyte two-electrode voltage clamp, HarmOR40 + Orco; format: cell-based
T2 sequence (A0A7T3KBF4 1-401): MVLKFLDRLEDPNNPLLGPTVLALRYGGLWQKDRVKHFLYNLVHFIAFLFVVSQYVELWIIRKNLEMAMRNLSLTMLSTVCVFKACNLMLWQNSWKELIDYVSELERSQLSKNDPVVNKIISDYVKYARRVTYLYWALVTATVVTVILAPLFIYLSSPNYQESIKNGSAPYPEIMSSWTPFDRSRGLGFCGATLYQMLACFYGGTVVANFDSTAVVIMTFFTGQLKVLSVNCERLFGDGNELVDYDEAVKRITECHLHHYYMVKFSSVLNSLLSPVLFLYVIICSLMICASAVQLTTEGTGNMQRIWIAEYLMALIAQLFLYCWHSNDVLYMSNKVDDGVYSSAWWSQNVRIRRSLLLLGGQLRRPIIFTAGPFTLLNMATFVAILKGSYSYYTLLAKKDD
Experimental: as §1, §2, §3

[7] = target: HarmOR23 (Helicoverpa armigera, UniProt A0A7T3KAE3); test: Xenopus oocyte two-electrode voltage clamp, HarmOR23 + Orco; format: cell-based; settings: dose response in oocytes, unit M printed in text only
HarmOR23, sequence (A0A7T3KAE3 entry or part of it): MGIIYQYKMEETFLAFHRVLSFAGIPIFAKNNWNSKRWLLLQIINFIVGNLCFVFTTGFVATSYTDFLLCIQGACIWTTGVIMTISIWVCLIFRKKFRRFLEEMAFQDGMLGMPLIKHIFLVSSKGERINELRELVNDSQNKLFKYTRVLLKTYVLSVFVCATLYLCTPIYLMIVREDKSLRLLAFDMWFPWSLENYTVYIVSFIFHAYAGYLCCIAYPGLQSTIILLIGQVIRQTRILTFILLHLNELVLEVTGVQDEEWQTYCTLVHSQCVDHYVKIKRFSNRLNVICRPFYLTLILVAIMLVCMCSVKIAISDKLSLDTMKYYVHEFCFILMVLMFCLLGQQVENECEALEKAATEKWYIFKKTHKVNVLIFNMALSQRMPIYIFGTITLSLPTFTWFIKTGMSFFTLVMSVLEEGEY
Experimental: as §1
as §2, with “CA). […]” for “CA).”

[8] = system: HarmOR repertoire; test: Responses of the 28 functional HarmORs across odorant doses (PCA of oocyte currents); format: cell-based, Helicoverpa armigera; settings: odorant 10^−7 M
From the text: Vectors quantifying the responses of the 28 ORs to each odorant were projected onto a 3D landscape. This 3D representation captured 78.34% (10^−4 M), 65.11% (10^−5 M), 68.89% (10^−6 M), and 84.52% (10^−7 M) of the variation in the original 28D data set across different odorant concentrations. […] In addition, the capacity of the H. armigera odor space was highly dependent on odorant concentration. As the concentrations of odorants decreased, their positions in the odor space converged, with the ability to discriminate different odorants diminishing.
as §2, §3
Graphs and data statistics of OR response spectra, dose responses, EAG, and behavioral experiments were generated by Prism 7 (GraphPad Software, La Jolla, CA). A heat map was generated in Excel 2010 (Microsoft Corporation, WA). […] For tuning breadth analysis, the kurtosis values (K) were calculated by SPSS 22 (SPSS Inc., Chicago, IL) and were used to define the tuning spectra width, where smaller K values represent broader tuning spectra (fig. 1B). […]

[9] = target: HarmOR42 (Helicoverpa armigera, UniProt A0A7T3KAF6); test: Xenopus oocyte two-electrode voltage clamp, HarmOR42 + Orco; format: cell-based; settings: 67 odorants at 10^−4 M
HarmOR42, sequence (A0A7T3KAF6 entry or part of it): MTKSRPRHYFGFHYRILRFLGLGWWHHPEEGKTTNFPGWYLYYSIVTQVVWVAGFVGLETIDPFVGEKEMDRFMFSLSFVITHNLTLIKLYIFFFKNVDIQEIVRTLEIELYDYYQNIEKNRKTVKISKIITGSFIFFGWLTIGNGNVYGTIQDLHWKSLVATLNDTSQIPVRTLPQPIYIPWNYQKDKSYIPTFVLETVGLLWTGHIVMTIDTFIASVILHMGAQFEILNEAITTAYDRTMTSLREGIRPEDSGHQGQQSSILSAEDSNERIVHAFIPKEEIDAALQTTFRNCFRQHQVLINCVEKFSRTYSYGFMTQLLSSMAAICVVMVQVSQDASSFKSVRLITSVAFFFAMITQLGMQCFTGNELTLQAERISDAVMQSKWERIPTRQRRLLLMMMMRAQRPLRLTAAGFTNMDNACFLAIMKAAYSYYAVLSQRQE
From the text: In preliminary screening, we used a high dosage (10^−4 M) of odorants. […] Most functional ORs responded robustly to multiple odorants. The strongest response (up to ∼6,000 nanoampere, nA) we detected was that of HarmOR42 toward the aromatic compound PAA. Further, the response profiles of the 28 HarmORs appeared to be highly differentiated, with no apparent overlap in their tuning spectra (with the exception of HarmOR12 and 36) according to functional cluster analysis (fig. 1A).
as §1, §2, §3

[10] = system: H. armigera moth antennae; test: Electroantennography (EAG), wild-type vs HarmOR42 knock-out moths; format: in vivo, Helicoverpa armigera; settings: single odorants, 1 μg
From the text: We next conducted a loss-of-function study by generating a HarmOR42-lacking H. armigera strain by CRISPR/Cas9 targeting the first coding exon. Homozygous mutants were obtained with a large segment deletion of 203 bp and a 6-bp nonhomologous insertion in the genome (fig. 6B), introducing a premature stop codon in the coding sequence. […] The most likely hypothesis is that HarmOR42 is not the major receptor for sensing this compound in H. armigera. As a control, we tested the response of male moths to the sex pheromone component Z11-16: Ald that is not a ligand of HarmOR42. As expected, we observed no difference between the EAG responses of mutant and wild-type moths to this compound.
The antennae of 2- to 3-day-old virgin male and female moths were cut at the base of the flagellum. After removing the tip, one antenna was inserted between two glass electrodes filled with 0.1 M KCl solution. In each test, a 10-μl solution of each odorant was added onto a piece of filter paper (0.5 cm × 0.5 cm) and then inserted into a Pasteur pipette. About 100 ng/μl stock solutions of individual odorants and different doses of the mixture IAC were prepared with paraffin oil. A continuous airflow of 30 ml/s was produced by a stimulus controller (CS-55, Syntech, Kirchzarten, Germany). Odor stimulation was controlled by a puff of purified air (0.2 s at 10 ml/s airflow) from the CS-55. EAG signals were amplified with a 10× AC/DC headstage preamplifier (Syntech) and further acquired with an Intelligent Data Acquisition Controller (IDAC-4-USB, Syntech) ([Cao et al. 2016]). The signals were recorded, monitored, and analyzed using Syntech EAG-software (Syntech, Germany). The EAG response values for each compound were calculated by subtracting the value of the same antennae corresponding to a solvent blank of paraffin oil.

[11] = target: HarmOR59 (Helicoverpa armigera, UniProt A0A7T3KAU6); test: Xenopus oocyte two-electrode voltage clamp, HarmOR59 + Orco; format: cell-based
HarmOR59, sequence (A0A7T3KAU6 entry or part of it): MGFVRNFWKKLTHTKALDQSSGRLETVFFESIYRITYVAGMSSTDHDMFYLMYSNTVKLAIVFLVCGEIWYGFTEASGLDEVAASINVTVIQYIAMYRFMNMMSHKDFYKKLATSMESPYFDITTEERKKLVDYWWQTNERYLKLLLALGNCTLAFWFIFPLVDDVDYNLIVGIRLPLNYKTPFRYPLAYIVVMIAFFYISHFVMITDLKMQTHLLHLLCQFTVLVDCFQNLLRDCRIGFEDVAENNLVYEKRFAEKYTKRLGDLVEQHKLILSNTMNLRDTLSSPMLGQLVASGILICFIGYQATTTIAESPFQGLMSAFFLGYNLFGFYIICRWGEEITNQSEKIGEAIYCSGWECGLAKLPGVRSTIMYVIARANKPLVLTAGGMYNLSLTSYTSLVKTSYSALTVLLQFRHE
Experimental: as §1, §2, §3

[12] = target: T3, HarmOR60 (Helicoverpa armigera, UniProt A0A7T3N1B9); test: Xenopus oocyte two-electrode voltage clamp, HarmOR60 + Orco; format: cell-based; settings: HarmOR60; dose response in oocytes; unit M
T3 sequence (A0A7T3N1B9 1-391): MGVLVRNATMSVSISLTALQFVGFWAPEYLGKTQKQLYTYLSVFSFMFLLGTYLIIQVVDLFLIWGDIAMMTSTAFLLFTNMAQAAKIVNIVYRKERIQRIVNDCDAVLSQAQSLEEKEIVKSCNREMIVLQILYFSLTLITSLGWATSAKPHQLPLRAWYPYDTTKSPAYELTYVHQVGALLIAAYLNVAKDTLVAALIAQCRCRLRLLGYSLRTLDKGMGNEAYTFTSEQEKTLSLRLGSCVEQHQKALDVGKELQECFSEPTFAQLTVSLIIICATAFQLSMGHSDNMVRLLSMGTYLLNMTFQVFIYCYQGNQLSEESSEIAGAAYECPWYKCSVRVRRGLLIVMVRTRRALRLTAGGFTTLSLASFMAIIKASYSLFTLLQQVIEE
Experimental: as §1
as §2, with “CA). […]” for “CA).”

[13] = HarmOR12, dose response in oocytes, unit M, read-out: EC50
[14] = HarmOR40, dose response in oocytes, unit M printed in text only, read-out: EC50
[15] = HarmOR59, dose response in oocytes, unit M, read-out: EC50

## CC/C=C\CC1=C(C)CCC1=O [cis-Jasmone]
[1]
  EC50: 78.6 µM

## CC1(C)[C@H]2CC=C(CO)[C@@H]1C2 [(1R)-(-)-Myrtenol]
[2]; HarmOR52, dose response in oocytes, unit M, read-out: EC50
  EC50: 17.1 µM

## C=C[C@](C)(O)CCC=C(C)C [(-)-Linalool]
[3]; HarmOR36, read-out: EC50
  EC50: 1.14 µM
[4]; [13]
  EC50: 13.7 µM

## CCC/C=C/COC(C)=O [(E)-2-Hexenyl acetate]
[5]
  EC50: 5.02 µM

## CC(=O)OC/C=C(\C)CCC=C(C)C [Geranyl acetate]
[6]; [14]
  EC50: 7.69 µM
[7]
  EC50: 5.1 µM

## CCCCCC1CCCC(=O)O1 (stereo not shown) [δ-Decanolactone]
[5]
  EC50: 8.16 µM

## CC/C=C\CCOC(C)=O [(Z)-3-Hexenyl acetate]
[5]
  EC50: 7.51 µM

## Farnesene
[6]; HarmOR40, dose response in oocytes, unit M printed in text only, listed as farnesene, read-out: EC50
  EC50: < 10 µM
[6]; [14]
  EC50: 7.9 µM
[7]
  EC50: 4.79 µM
[7]; listed as farnesene
  EC50: < 10 µM

## CC(C)=CCCC(C)CCO (stereo not drawn) [β-Citronellol]
[3]; HarmOR36, read-out: EC50
  EC50: 4.68 µM
[4]; [13]
  EC50: 80.1 µM

## OCCc1ccccc1 [2-Phenylethanol]
[8]
  response of the HarmOR repertoire: still responded
[9]
  ligand tuning of HarmOR42: minor ligand
[10]
  EAG response of HarmOR42 knock-out mutants compared with wild-type moths: no significant difference
[11]; [15]
  EC50: 2.91 µM

## CCC/C=C/C=O [(E)-2-Hexen-1-al]
[11]
  EC50: 3780 µM

## CC(C)=CCC/C(C)=C/CO [Geraniol]
[6]
  EC50: 27.8 µM
[4]
  EC50: 27.6 µM

## CCC/C=C/CO [(E)-2-Hexen-1-ol]
[11]
  EC50: 1190 µM
[2]
  EC50: 24 µM

## CCCC/C=C\CCCCCCCCCC=O [Z11-16: Ald]
[9]
  ligand tuning of HarmOR42: not a ligand
[10]
  EAG response of HarmOR42 knock-out mutants compared with wild-type moths: no difference

## (±)-Citronellal
[1]
  EC50: 333 µM

## CC/C=C\CCO [(Z)-3-hexen-1-ol]
[11]
  EC50: 1860 µM
[2]
  EC50: 23.3 µM

## OCc1ccccc1 [Benzyl alcohol]
[2]
  EC50: 6.87 µM

## CCC/C=C\CO [(Z)-2-Hexen-1-ol]
[2]
  EC50: 16.5 µM

## C=CC(C)(O)CCC=C(C)C (stereo not shown) [Linalool]
[8]
  response of the HarmOR repertoire: still responded
[3]; EC50, HarmOR36
  EC50: 1.16 µM
[4]
  EC50: 21.2 µM

## C[C@@H]1CC[C@H]2C(C)(C)[C@H]3C[C@@]12CC[C@@]3(C)O [Cedrol]
[12]
  EC50: 8.6 µM

## CCc1ccc(C=O)cc1 [4-Ethylbenzaldehyde]
[11]; [15]
  EC50: 1190 µM

## CCC(C)(O)CCCC(C)C (stereo not shown) [3,7-Dimethyl-3-octanol]
[3]; HarmOR36, read-out: EC50
  EC50: 2.91 µM

— paper PMC8042770, “Odorant Receptors for Detecting Flowering Plant Cues Are Functionally Conserved across Moths and Butterflies” (Molecular Biology and Evolution, 2020)
